Data taken from patent US20250115581A1, “SUBSTITUTED PIPERIDINES AS CK1A DEGRADERS” (Monte Rosa Therapeutics, Inc., priority 2022, published 2025).

Legend:
CK1α = molecular target: T1, CK1α (Homo sapiens, UniProt P48729+Q96SW2); assay: CK1α NanoBit Assay (HiBiT-tagged CSNK1A1 in HEK293 cells, luminescence); assay type: cell-based; settings: 24 h
T1 construct: HEK293 clonal lines with CRISPR KI HiBiT tag on CSNK1A1; host or cells: HEK293 clonal line, CRISPR knock-in HiBiT at the CSNK1A1 locus, stably expressing LgBiT
T1 sequence (P48729 whole entry): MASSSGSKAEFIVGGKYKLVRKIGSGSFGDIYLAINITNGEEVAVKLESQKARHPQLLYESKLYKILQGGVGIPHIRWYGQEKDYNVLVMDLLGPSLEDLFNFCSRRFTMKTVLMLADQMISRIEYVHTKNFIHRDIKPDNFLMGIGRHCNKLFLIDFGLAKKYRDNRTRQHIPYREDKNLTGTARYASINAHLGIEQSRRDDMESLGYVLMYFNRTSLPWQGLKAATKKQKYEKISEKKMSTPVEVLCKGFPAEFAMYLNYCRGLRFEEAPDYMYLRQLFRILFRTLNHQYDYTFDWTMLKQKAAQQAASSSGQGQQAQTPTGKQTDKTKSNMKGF
T1 sequence (Q96SW2 whole entry): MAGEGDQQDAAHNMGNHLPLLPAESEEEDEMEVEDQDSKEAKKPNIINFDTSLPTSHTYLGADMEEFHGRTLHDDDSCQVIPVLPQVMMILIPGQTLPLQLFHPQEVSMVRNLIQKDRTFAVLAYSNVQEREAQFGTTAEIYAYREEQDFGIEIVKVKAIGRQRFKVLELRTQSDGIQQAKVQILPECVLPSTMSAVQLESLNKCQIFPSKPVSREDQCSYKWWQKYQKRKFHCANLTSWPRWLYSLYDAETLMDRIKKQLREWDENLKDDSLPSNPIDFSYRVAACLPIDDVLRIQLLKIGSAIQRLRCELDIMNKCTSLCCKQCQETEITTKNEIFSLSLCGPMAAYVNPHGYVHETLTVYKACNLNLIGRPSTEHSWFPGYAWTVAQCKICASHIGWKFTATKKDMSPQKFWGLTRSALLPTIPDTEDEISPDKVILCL
T1 sequence (Q16531 whole entry partner): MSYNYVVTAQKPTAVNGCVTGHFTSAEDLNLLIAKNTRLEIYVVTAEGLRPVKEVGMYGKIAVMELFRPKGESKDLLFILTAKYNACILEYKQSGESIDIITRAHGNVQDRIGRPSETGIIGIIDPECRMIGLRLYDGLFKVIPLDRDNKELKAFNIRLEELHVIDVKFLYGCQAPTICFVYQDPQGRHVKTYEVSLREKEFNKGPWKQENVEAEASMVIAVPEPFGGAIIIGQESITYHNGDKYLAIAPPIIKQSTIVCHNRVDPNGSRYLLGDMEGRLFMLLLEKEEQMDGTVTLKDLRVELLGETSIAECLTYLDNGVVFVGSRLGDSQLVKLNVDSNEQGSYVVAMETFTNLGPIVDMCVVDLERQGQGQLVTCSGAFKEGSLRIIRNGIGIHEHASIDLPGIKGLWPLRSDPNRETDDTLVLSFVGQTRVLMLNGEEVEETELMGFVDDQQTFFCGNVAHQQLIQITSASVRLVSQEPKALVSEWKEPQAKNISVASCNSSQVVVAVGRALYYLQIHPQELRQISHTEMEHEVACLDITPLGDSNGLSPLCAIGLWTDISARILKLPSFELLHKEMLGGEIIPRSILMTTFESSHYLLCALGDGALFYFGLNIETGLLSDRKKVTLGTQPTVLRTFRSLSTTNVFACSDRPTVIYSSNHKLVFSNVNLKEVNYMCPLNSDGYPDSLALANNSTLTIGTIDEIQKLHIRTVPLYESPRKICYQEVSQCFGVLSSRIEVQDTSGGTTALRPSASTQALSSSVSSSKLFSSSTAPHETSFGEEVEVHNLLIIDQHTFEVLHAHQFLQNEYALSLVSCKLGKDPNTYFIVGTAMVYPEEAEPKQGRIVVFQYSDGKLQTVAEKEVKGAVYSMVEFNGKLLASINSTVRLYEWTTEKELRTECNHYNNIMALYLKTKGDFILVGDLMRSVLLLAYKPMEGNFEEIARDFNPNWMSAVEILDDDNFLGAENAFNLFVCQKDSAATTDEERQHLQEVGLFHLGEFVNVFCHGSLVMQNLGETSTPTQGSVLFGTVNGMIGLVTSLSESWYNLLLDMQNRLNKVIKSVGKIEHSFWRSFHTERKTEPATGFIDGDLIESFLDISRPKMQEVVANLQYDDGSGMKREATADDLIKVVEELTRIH
Method: HEK293 clonal lines with CRISPR KI HiBiT tag on CSNK1A1 and stably expressing LgBiT protein were obtained from Promega (Madison, WI). Cells were plated at 5000 cells per well using Multiflo (BioTek) in 384-well white solid bottom plates (Corning, 3570BC) in 25 μl volume in DMEM media (DMEM, high glucose, HEPES, no phenol red (ThermoFisher Scientific, 21063029)) containing 10% FBS (Corning, 35-075-CV), 1% Penicillin/Streptomycin ((ThermoFisher Scientific, 15140-122), and 0.2% Endurazine (Nano-Glo Endurazine Live Cell Substrate (Promega, N2571)). Cells were incubated for 16 hours at 37° C., 5% CO2. Depending on experiment 25 or 75 nL of a compound at 10 mM were added into the plate using an Echo® 650 liquid handler (Labcyte) to achieve final concentration of 10 or 30 μM in wells. Cells were incubated at 37° C., 5% CO2 for 24 hours and then signal was read on a Pherastar FSX using “LUM plus” optic module.
Data analysis was performed in Scinamic (Scinamic, Cambridge, MA). Luminescence response (R) was calculated by the formula: response=100*(S−N)/(P−N) where S is the signal of the well, N and P the mean negative and positive control values respectively of the same plate. The luminescence response was then fitted in Scinamic using a 3-parameter agonist logistic fit (hillslope=1, EC50>0, top/bottom unconstrained).
DC50 data are reported in Table 2 for compounds in Table 1. In Table 2 below, According to the code, A represents a DC50 value of ≤0.1 μM, B represents a DC50 value >0.1 μM and ≤1 μM, C represents an DC50 value >1 μM.

CRBN/DDB1 = CRBN/DDB1 (Homo sapiens, UniProt Q96SW2); assay: HTRF binding assay (displacement of Cy5-thalidomide probe from CRBN/DDB1); settings: CRBN/DDB1 2.5 nM, Cy5-Thalidomide 100 nM, 30 min; geometric mean; read-out: HTRF_Thali_Disp_DR_geo_IC50
Chain of CRBN/DDB1 (Q96SW2 whole entry): as the sequence (Q96SW2 whole entry) above
Chain of CRBN/DDB1 (Q16531 whole entry partner): as the sequence (Q16531 whole entry partner) above
From the text: Binding of test compounds to CRBN/DDB1 was monitored in an HTRF assay using 1-[5-({2-[2-(2-{[2-(2,6-dioxopiperidin-3-yl)-1,3-dioxo-2,3-dihydro-1H-isoindol-4-yl]oxy}acetamido)ethoxy]ethyl}carbamoyl)pentyl]-3,3-dimethyl-2-[(1E,3E)-5-[(2E)-1,3,3-trimethyl-5-sulfo-2,3-dihydro-1H-indol-2-ylidene]penta-1,3-dien-1-yl]-3H-indol-1-ium-5-sulfonate as a fluorescent probe. In this assay, compounds displace the fluorescently labeled thalidomide-based probe bound to CRBN and fluorescence is monitored with increasing compound concentration. Assays were conducted in Greiner white 384 well HiBase plates (Cat. No 784075-25) in 10 μL total volume. A one pot detection solution of CRBN/DDB1 (2.5 nM), anti-His Terbium Cryptate Gold (1×, PerkinElmer Cat. #: 61HI2TLB), and Cy5-Thalidomide (100 nM, Tenova Cat.: T52461) was prepared in 20 mM HEPES, 20 mM NaCl, 0.2 mM TCEP, 0.2 mM EDTA, and 0.005% Tween20 was dispensed to each assay plate. Test compounds were stored in dry, ambient temperatures at 10 mM. A 10-point, 1:3 dilution series was prepared from 10 mM stock concentrations in Echo-compatible LDV plates. 10 nL of each compound dilution series was dispensed into assays wells using an Echo 650 (Labcyte inc. USA). 10 nL of 10 mM lenalidomide (Selleckchem Cat no. S1029) was transferred into the active-control wells for the assay and 10 nL of DMSO was transferred into the negative control wells. The assay was then allowed to incubate for 30 min at ambient temperature after transferring the test compounds. Plate measurements were taken on a Pherastar FSX (BMG Labtech, Germany) using the HTRF Red filter (Ex. 337 nm, em1: 620 nm, em2: 665 nm) (Flashes: 50, Integration time: 60-400 μs, Z-height: 10 mm, Ratio-multiplier: 10,000). Analysis, HTRF ratio and IC50 values were derived using KNIME analytics (KNIME Zurich) transformation and fitting within Collaborative Drug Discovery (Collaborative Drug Discovery USA) using a 4-parameter logistic fit. HTRF ratio calculation was performed using the following formula: […]
where em665 nm represents the measured emission at 665 nm upon excitation at 337 nm and em620 nm the measured emission at 620 nm upon excitation at 337 nm. The 4 parameter logistic fitting model was performed using the following formula: […]
where Y represents the HTRF ratio response (as defined previously), X the compound concentration in μM, Ymin the minimum response plateau, Ymax the maximum response plateau, IC50 the concentration of […] that gives a response half way between Ymin and Ymax and HillSlope the steepness of the family of curves. No fitting model constraints was applied on Ymin, or Ymax whilst IC50>0 and −0.5>HillSlope>−3 Cheng-Prusoff transformation
Ki values were derived from the geometric mean of the IC50 values using the Cheng-Prusoff transformation:
where [L] represents the concentration of fluorescent probe in […], Kd the affinity (binding constant) of the fluorescent probe in units of μM and IC50 the concentration of agonist that gives a response halfway between Ymin and Ymax (as described in 1.2.1)
Analysis and IC50 values were derived using KNIME analytics (KNIME, Zurich) transformation and fitting within Collaborative Drug Discovery (Collaborative Drug Discovery, USA) as described in 1.2.1. Ki values were derived from the geometric mean of the IC50 values using the Cheng-Prusoff transformation as described in 2.2.2. Data was visualized in GraphPad Prism 8.1.2 (GraphPad, USA) and reported as mean and standard deviation. Microsoft Office Excel 2012 (Redmond, WA) was used for calculation of mean and standard deviation.
IC50 data are reported in Table 3 for compounds in Table 1. In Table 3 below, According to the code, A represents a IC50 value of ≤0.1 μM, B represents a IC50 value >0.1 μM and ≤1 μM, C represents an IC50 value >1 μM.

| SMILES | DC50 (CK1α) | IC50 (CRBN/DDB1) |
| --- | --- | --- |
| O=C1CCC(N2Cc3cc(N4CCN(c5cccc6nc[nH]c56)C4=O)ccc3C2=O)C(=O)N1 (centres unmarked) [Compound 175, 3-(5-(3-(1H-benzo[d]imidazol-7-yl)-2-oxoimidazolidin-1-yl)-1-oxoisoindolin-2-yl) piperidine-2,6-dione] | > 1 µM | > 1 µM |
| O=C1CCC(N2Cc3cc(N4CCN(C5CN(c6ccccc6)C5)C4=O)ccc3C2=O)C(=O)N1 (centres unmarked) [Compound 174, 3-(1-oxo-5-(2-oxo-3-(1-phenylazetidin-3-yl)imidazolidin-1-yl)isoindolin-2-yl)piperidine-2,6-dione] | > 1 µM | 0.1 to 1 µM |
| Cc1ccc(N2C(=O)N(c3ccc4c(c3)CN(C3CCC(=O)NC3=O)C4=O)C[C@@H]2C)cn1 (stereo partly drawn) [Compound 155, 3-(5-((S)-4-methyl-3-(6-methylpyridin-3-yl)-2-oxoimidazolidin-1-yl)-1-oxoisoindolin-2-yl)piperidine-2,6-dione] | 0.1 to 1 µM | 0.1 to 1 µM |
| Cc1ccc(N2C(=O)N(c3ccc4c(c3)CN(C3CCC(=O)NC3=O)C4=O)C[C@@H]2C(F)F)cc1 (stereo partly drawn) [Compound 158, 3-(5-((R)-4-(difluoromethyl)-2-oxo-3-(p-tolyl)imidazolidin-1-yl)-1-oxoisoindolin-2-yl)piperidine-2,6-dione] | 0.1 to 1 µM | 0.1 to 1 µM |
| O=C1CCC(N2Cc3cc(N4C[C@H](C(F)(F)F)N(c5ccccc5)C4=O)ccc3C2=O)C(=O)N1 (stereo partly drawn) [Compound 108, 3-(1-oxo-5-((R)-2-oxo-3-phenyl-4-(trifluoromethyl)imidazolidin-1-yl)isoindolin-2-yl)piperidine-2,6-dione] | > 1 µM | 0.1 to 1 µM |
| O=C1CCC(N2Cc3cc(N4CCN(C(c5ccccc5)C(F)(F)F)C4=O)ccc3C2=O)C(=O)N1 (centres unmarked) [Compound 179, 3-(1-oxo-5-(2-oxo-3-(2,2,2-trifluoro-1-phenylethyl)imidazolidin-1-yl)isoindolin-2-yl)piperidine-2,6-dione] | > 1 µM | 0.1 to 1 µM |
| Cc1ccc(N2C(=O)N(c3ccc4c(c3)CN(C3CCC(=O)NC3=O)C4=O)C[C@H]2C(F)F)cc1 (stereo partly drawn) [Compound 173, 3-(5-((S)-4-(difluoromethyl)-2-oxo-3-(p-tolyl)imidazolidin-1-yl)-1-oxoisoindolin-2-yl)piperidine-2,6-dione] | > 1 µM | 0.1 to 1 µM |
| C[C@@H]1CN(c2ccc3c(c2)CN(C2CCC(=O)NC2=O)C3=O)C(=O)N1c1ncccn1 (stereo partly drawn) [Compound 182, 3-(5-((R)-4-methyl-2-oxo-3-(pyrimidin-2-yl)imidazolidin-1-yl)-1-oxoisoindolin-2-yl)piperidine-2,6-dione] | > 1 µM | 0.1 to 1 µM |
| O=C1CCC(N2Cc3cc(N4CCN(c5ccc6[nH]cnc6c5)C4=O)ccc3C2=O)C(=O)N1 (centres unmarked) [Compound 170, 3-(5-(3-(1H-benzo[d]imidazol-5-yl)-2-oxoimidazolidin-1-yl)-1-oxoisoindolin-2-yl) piperidine-2,6-dione] | 0.1 to 1 µM | ≤ 0.1 µM |
| O=C1CCC(N2Cc3cc(N4CCN(C5CCOCC5)C4=O)ccc3C2=O)C(=O)N1 (centres unmarked) [Compound 183, 3-(1-oxo-5-(2-oxo-3-(tetrahydro-2H-pyran-4-yl)imidazolidin-1-yl)isoindolin-2-yl)piperidine-2,6-dione] | > 1 µM | 0.1 to 1 µM |

Further lines, results first:

| DC50 (CK1α) | IC50 (CRBN/DDB1) | SMILES |
| --- | --- | --- |
| 0.1 to 1 µM | 0.1 to 1 µM | COC(C)c1ccccc1N1CCN(c2ccc3c(c2)CN(C2CCC(=O)NC2=O)C3=O)C1=O (centres unmarked) [Compound 169, 3-(5-(3-(2-(1-methoxyethyl)phenyl)-2-oxoimidazolidin-1-yl)-1-oxoisoindolin-2-yl)piperidine-2,6-dione] |
| ≤ 0.1 µM | 0.1 to 1 µM | COCc1cccc(N2C(=O)N(c3ccc4c(c3)CN(C3CCC(=O)NC3=O)C4=O)C[C@H]2C)c1 (stereo partly drawn) [Compound 149, 3-(5-((R)-3-(3-(methoxymethyl)phenyl)-4-methyl-2-oxoimidazolidin-1-yl)-1-oxoisoindolin-2-yl)piperidine-2,6-dione] |
| 0.1 to 1 µM | 0.1 to 1 µM | O=C1CCC(N2Cc3cc(N4CCN(C5CCOC5)C4=O)ccc3C2=O)C(=O)N1 (centres unmarked) [Compound 162, 3-(1-oxo-5-(2-oxo-3-(tetrahydrofuran-3-yl)imidazolidin-1-yl)isoindolin-2-yl)piperidine-2,6-dione] |
| ≤ 0.1 µM | 0.1 to 1 µM | C[C@@H]1CN(c2ccc3c(c2)CN(C2CCC(=O)NC2=O)C3=O)C(=O)N1c1cnccn1 (stereo partly drawn) [Compound 132, 3-(5-((R)-4-methyl-2-oxo-3-(pyrazin-2-yl)imidazolidin-1-yl)-1-oxoisoindolin-2-yl)piperidine-2,6-dione] |
| ≤ 0.1 µM | 0.1 to 1 µM | COCc1cccc(N2CCN(c3ccc4c(c3)CN(C3CCC(=O)NC3=O)C4=O)C2=O)c1 (centres unmarked) [Compound 136, 3-(5-(3-(3-(methoxymethyl)phenyl)-2-oxoimidazolidin-1-yl)-1-oxoisoindolin-2-yl)piperidine-2,6-dione] |
| ≤ 0.1 µM | 0.1 to 1 µM | Cc1cccc(N2CCN(c3ccc4c(c3)CN(C3CCC(=O)NC3=O)C4=O)C2=O)c1 (centres unmarked) [Compound 110, 3-(1-oxo-5-(2-oxo-3-(m-tolyl)imidazolidin-1-yl)isoindolin-2-yl)piperidine-2,6-dione] |
| ≤ 0.1 µM | 0.1 to 1 µM | Cc1ccc(N2CCN(c3ccc4c(c3)CN(C3CCC(=O)NC3=O)C4=O)C2=O)c(C)c1 (centres unmarked) [Compound 150, 3-(5-(3-(2,4-dimethylphenyl)-2-oxoimidazolidin-1-yl)-1-oxoisoindolin-2-yl)piperidine-2,6-dione] |
| ≤ 0.1 µM | 0.1 to 1 µM | C[C@@H]1CN(c2ccc3c(c2)CN(C2CCC(=O)NC2=O)C3=O)C(=O)N1C1CCC1 (stereo partly drawn) [Compound 142, 3-(5-((R)-3-cyclobutyl-4-methyl-2-oxoimidazolidin-1-yl)-1-oxoisoindolin-2-yl)piperidine-2,6-dione] |
| ≤ 0.1 µM | 0.1 to 1 µM | CC1CN(c2ccc3c(c2)CN(C2CCC(=O)NC2=O)C3=O)C(=O)N1c1ccc(C(F)(F)F)nc1 (centres unmarked) [Compound 121, 3-(5-(4-methyl-2-oxo-3-(6-(trifluoromethyl)pyridin-3-yl)imidazolidin-1-yl)-1-oxoisoindolin-2-yl)piperidine-2,6-dione] |
